Experimental data published in article PMC11111691, “Cystine-knot peptide inhibitors of HTRA1 bind to a cryptic pocket within the active site region” (Nature Communications, 2024).
Entries after “also recorded” stand apart in the source; their conditions may differ. Positions of bridges follow the written chain, without caps; N, C: chain ends. Residues, ends and D or L forms follow the SMILES beside them.

What was measured:
[1] = CKP stability assay; type: physicochemical; settings: chemical stability, PBS containing 0.15% DMSO, 0.3 mM (~1 mg/ml), 37 °C, LC-MS, HPLC UV 220 nm peak area normalized to DMSO peak, two independent experiments, preliminary
Procedure: The CKPs 1G10 and 1G10-ENI were incubated in PBS containing 0.15% DMSO at a concentration of 0.3 mM (~1 mg/ml) at 37 °C for 30 days. Samples from two independently performed experiments were frozen at −20 °C until further analysis. Thawed samples were diluted in H2O and injected into LC-MS (Agilent). From the HPLC UV trace (at 220 nm) the CKP peak area was normalized to the DMSO peak area from the same run. The values obtained from multiple HPLC runs were averaged and shown as dot plot.

[2] = MDCK trans-well cell permeability assay; type: in vitro ADME, canine; settings: dog, MDCK trans-well (protocol of Chen et al. 2018, canine Mdr1 knockout MDCK I), apical to basolateral, 50 µM CKP, 37C, 5% CO2, HBSS 25 mM HEPES pH 7.4, TOF/MS read-out, n = 4-6, read-out: Papp (apparent permeability)
Procedure: (§4) We carried out a cell permeability study using a MDCK trans-well assay, which is commonly
(§5) used at Genentech for permeability screening of compounds . This assay measures the flux of test
(§6) compound (Papp, apparent permeability) across a MDCK monolayer from the apical to the
(§7) basolateral compartment over a 16 h period.
sensitive mass spectrometry method .
(§8) 10x10-6 cm/s and compounds with Papp values of <1x10-6 cm/s are considered to be of low
Protocol of permeability assay:
(§9) Experiments were carried out as described (Chen et al. Evaluating the utility of canine Mdr1 knockout
(§10) Madin-Darby canine kidney I cells in permeability screening and efflux substrate determination, Mol
(§11) Cells were seeded in 96-well Corning Transwell plates (PET membrane, 1 µm pore size) at 75,000 cells
(§12) per well and grown in DMEM media supplemented with 10% FBS, 1% pen-strep and 1x Glutamax at
(§13) 37C, 5% CO2 for 48 h to ensure monolayer formation. Stock solutions of the three CKPs 1B3, 1D3-ENI
(§14) and 1G10-ENI were diluted in Hank's Balanced Salt solution containing 25 mM HEPES, pH 7.4 and 25
(§15) µM of the monolayer integrity marker lucifer yellow. CKPs at a concentration of 50 µM were added to
(§16) the apical (donor) chamber and the CKP the apparent permeability (Papp) was determined by quantifying
(§17) the amount of CKP in the basolateral (receiver) chamber after 16 h incubation at 37C, 5% CO2. The
(§18) samples from the basolateral chamber were supplemented with the experiment analytical internal standard
(§19) (100 nM propranolol in 50% ACN:50% water with 0.1% formic acid) and then injected in a Sciex Zeno
(§20) TOF 7600 mass spectrometer using TOF/MS mode.

[3] = tested on: MDCK monolayer; test: MDCK trans-well cell permeability assay; type: in vitro ADME, canine; settings: MDCK trans-well, apical to basolateral, up to 50 µM, 16 h, mass spectrometry
Procedure: as §4, §5, §6, §7
sensitive mass spectrometry method .
as §8
Protocol of permeability assay:
as §9, §10, §11, §12, §13, §14, §15, §16, §17, §18, §19, §20

[4] = tested on: HeLa cells; test: Cell toxicity assay (CellTiter-Glo), HeLa; type: cell-based; settings: 0.6-50 µM CKP, 24 h and 72 h, at least three independent experiments
Procedure: (§1) reduction at the highest CKP concentration of 50 µM after 72 h (see results below). The absence of cell toxicity is likely due to the inability of the CKPs to penetrate cell membranes, which was experimentally determined in response to another reviewer. Due to space limitations we have not […]
(§2) Protocol of cell toxicity assay (Figure above):
(§3) HeLa cells or C32 melanoma cells were passaged in DMEM media supplemented with 10% FBS, 1% pen-strep and 1x Glutamax using standard culture conditions (5% CO2, 90% humidity at 37°C). At approximately 95% confluence cells were trypsinized, seeded onto 96-well plates (Corning) at 10,000 cells/well and grown for 24 h. Cells were then incubated with the CKPs 3B3, 1D3-ENI and 1G10-ENI (0, 0.6, 1.9, 5.6, 16.7 and 50 µM) at 37°C for 24 h or for 72h. As a positive control we used staurosporine (STS; 1µM). Cell viability was measured using the CellTiter-Glo luminescent cell viability assay (Promega) on an Envision Multilabel plate reader. Average of at least three independent experiments ± S.D. were plotted in Prism 10. Two-way ANOVA was performed on each dataset and compared to no drug samples and no significant viability reductions were observed, except for some treatments at the […]

[5] = tested on: C32 melanoma cells; test: Cell toxicity assay (CellTiter-Glo), C32; type: cell-based, human; settings: for Viability reduction, C32 cells, 72 h: 50 µM CKP; for Cell viability, C32 melanoma cells: 0.6-50 µM CKP, 24 h and 72 h, at least three independent experiments
Procedure: as §1, §2, §3

SMILES | Stability: intact peptide after 30 days [1] | Papp A→B at 16 h, 50 µM [2] | Cell permeability in the MDCK cell assay [3] | Cell viability, HeLa cells [4] | Viability reduction, C32 cells, 72 h [5] | Cell viability, C32 melanoma cells [5]
CC[C@H](C)[C@H](NC(=O)CNC(=O)[C@H](Cc1c[nH]c2ccccc12)NC(=O)CNC(=O)[C@@H]1CSSC[C@@H]2NC(=O)[C@H](CC(=O)O)NC(=O)[C@H](CC(=O)O)NC(=O)[C@H](Cc3c[nH]cn3)NC(=O)[C@H]([C@@H](C)O)NC(=O)[C@H](CCC(=O)O)NC(=O)[C@@H]3CSSC[C@H](NC(=O)[C@H]([C@@H](C)O)NC(=O)[C@H](CCC(N)=O)NC(=O)[C@H](CSSC[C@H](NC(=O)[C@@H](NC(=O)[C@@H]4CCCN4C(=O)[C@H](CC(=O)O)NC(=O)[C@@H](NC(=O)[C@@H]4CCCN4C(=O)[C@@H](N)Cc4ccc(O)cc4)C(C)C)[C@@H](C)CC)C(=O)N[C@@H](CC(N)=O)C(=O)N[C@@H](CCCCN)C(=O)N4CCC[C@H]4C(=O)N3)NC(=O)[C@H](Cc3ccccc3)NC(=O)[C@H](Cc3c[nH]c4ccccc34)NC(=O)[C@H](C)NC(=O)CNC(=O)[C@H](CO)NC2=O)C(=O)N[C@@H](Cc2ccc(O)cc2)C(=O)N[C@@H](Cc2ccc(O)cc2)C(=O)N[C@@H](C)C(=O)N[C@@H](CC(N)=O)C(=O)N[C@@H](Cc2c[nH]c3ccccc23)C(=O)N[C@@H](CO)C(=O)N1)C(=O)N[C@@H](CCCNC(=N)N)C(N)=O [1G10-ENI] (H-YPVDPICNKPCETHDDCSGAWFCQTCYYANWSCGWGIR-NH2; disulfide 7-23, 11-26, 17-33) | no change in peptide mass at 30 days; also recorded: highly stable | < 0.003 ×10⁻⁶ cm/s | no detectable cell permeability | did not appreciably affect cell viability | 13% | did not appreciably affect cell viability
CC[C@H](C)[C@H](N)C(=O)N[C@@H](Cc1c[nH]c2ccccc12)C(=O)N1CCC[C@H]1C(=O)N[C@@H](CC(=O)O)C(=O)N1CCC[C@H]1C(=O)N[C@H](C(=O)N[C@H]1CSSC[C@@H]2NC(=O)[C@H](Cc3ccccc3)NC(=O)[C@H](Cc3c[nH]c4ccccc34)NC(=O)[C@H](C)NC(=O)CNC(=O)[C@H](CO)NC(=O)[C@@H]3CSSC[C@@H](C(=O)NCC(=O)N[C@@H](Cc4c[nH]c5ccccc45)C(=O)NCC(=O)N[C@H](C(=O)N[C@@H](CCCNC(=N)N)C(N)=O)[C@@H](C)CC)NC(=O)[C@H](CO)NC(=O)[C@H](Cc4c[nH]c5ccccc45)NC(=O)[C@H](CC(N)=O)NC(=O)[C@H](C)NC(=O)[C@H](Cc4ccc(O)cc4)NC(=O)[C@H](Cc4ccc(O)cc4)NC(=O)[C@H](CSSC[C@H](NC(=O)[C@@H]4CCCN4C(=O)[C@H](CCCCN)NC(=O)[C@H](CC(N)=O)NC1=O)C(=O)N[C@@H](CCC(=O)O)C(=O)N[C@@H]([C@@H](C)O)C(=O)N[C@@H](Cc1c[nH]cn1)C(=O)N[C@@H](CC(=O)O)C(=O)N[C@@H](CC(=O)O)C(=O)N3)NC(=O)[C@H]([C@@H](C)O)NC(=O)[C@H](CCC(N)=O)NC2=O)[C@@H](C)CC [1D3-ENI] (H-IWPDPICNKPCETHDDCSGAWFCQTCYYANWSCGWGIR-NH2; disulfide 7-23, 11-26, 17-33) | – | < 0.003 ×10⁻⁶ cm/s | no detectable cell permeability | did not appreciably affect cell viability | 13% | did not appreciably affect cell viability
